Data: patent US20180264282A1, “Specially Designed Kit To Aid Photo-Biologic Eradication Of Staphylococcus Aureus And MRSA In The Nares” (Nomir Medical Technologies, Inc., priority 2017, published 2018)
Several values for one entry are separate records, joined by “and”; a condition that tells them apart may be missing. Equal values may be shown once. Read-outs that look alike come from different tables or passages of the source.

Assays:
S. aureus [1] = test: summary of clinical nasal decolonization studies using mupirocin treatments; type: in vivo, human; conditions: administered three times per day versus twice per day
Source text: Overall, the results from clinical studies of nasal decolonization studies using various mupirocin treatments are summarized in the table below: […]

[2] = tested on: gram-positive bacteria such as S. aureus; conditions: cited from earlier work
[3] = tested on: gram-negative enterobacteriacea; conditions: cited from earlier work
[4] = tested on: gram-positive enterococci; conditions: cited from earlier work
S. aureus [5] = conditions: cited from earlier work
pyogenic skin infections = conditions: 2% water miscible cream three times per day for five days; assessed day seven; cited from earlier work
S. aureus [6] = conditions: cited from earlier work; remark: listed apart in the source
MRSA = conditions: cited from earlier work
S. aureus [7] = conditions: cited from earlier work; remark: listed apart in the source
S. aureus [8] = conditions: in paraffin intra-nasally b.i.d. for five days; 72 hours after therapy; cited from earlier work
S. aureus [9] = conditions: b.i.d. five day regimen; cited from earlier work
S. aureus [10] = conditions: cited from earlier work; remark: listed apart in the source
[11] = tested on: nasal carriage of staphylococci; conditions: in snuff compounds; returned to normal after snuff therapy was discontinued; cited from earlier work
[12] = tested on: impetigo and furunculosis; conditions: spray; cited from earlier work
sycosis barbae = conditions: cream to skin lesions and nose; cited from earlier work
S. aureus [13] = conditions: after five days of local treatment to the nose, cited from earlier work
[14] = tested on: Staphylococcal furunculosis in the nose; conditions: 25% aqueous solution, topical; patients with chronic Staphylococcal furunculosis in the nose; cited from earlier work
S. aureus [15] = conditions: nasal administration; cited from earlier work
[16] = three weeks after the treatment phase

Molecule: C/C(=C\C(=O)OCCCCCCCCC(=O)O)C[C@@H]1OC[C@H](C[C@@H]2O[C@H]2[C@@H](C)[C@H](C)O)[C@@H](O)[C@H]1O [mupirocin]
- outcomes t.i.d. compared with b.i.d. (S. aureus [1]): statistically significantly better outcomes
- antibacterial activity [2]: antibacterial activity
- cross-resistance with other antibiotics [2]: no cross-resistance
- antibacterial activity [3]: not substantial activity
- antibacterial activity [4]: not substantial activity
- effective concentrations (S. aureus [5]): 0.05 to 0.5 µg/mL
- mutant inhibitory concentration (MIC) (S. aureus [5]): 0.05 µg/mL
- type of effect at MIC (S. aureus [5]; within MIC range cells recover in fresh media, higher concentrations needed for bactericidal effect): bacteriostatic
- patients with infection completely cleared (pyogenic skin infections): 43 of the 46
- patients with S. aureus carriage eliminated from nares (S. aureus [6]; 2% in white soft paraffin four times per day, 18 treated): all
- change in MIC to mupirocin on recolonization (S. aureus [6]; [16]): without an increase
- patients who regained S. aureus in the nares (S. aureus [6]; [16]): three
- treated patients and staff with nasal carriage eliminated (MRSA; 2% in paraffin t.i.d. for five days, 40 patients and 32 staff): all
- number of patients with MRSA isolated from wrists (MRSA; immediately after therapy was completed, from 16 before): three
- time to elimination of nasal carriage (MRSA; usually): ≤ 48 h
- patients recolonized (MRSA; within two weeks after therapy): Four
- participants with S. aureus eradicated (S. aureus [7]; in paraffin t.i.d. for five days, tested four days after the last dose): 67 of the 69
- patients recolonized with S. aureus in the nose (S. aureus [7]; two weeks post therapy): approximately 40%
- proportion of hand cultures positive for S. aureus (S. aureus [8]): 2.9%
- patients with nasal carriage eliminated (S. aureus [9]): approximately 80%
- Elimination after trial (S. aureus [10]; 2X-3X per day, 3-8 days): 97%
- Elimination after trial (S. aureus [10]; 3X per Day, 5 Days): 100% and 97%
- Elimination after trial (S. aureus [10]; 4X per Day, 5 Days): 100%
- Recolonization (S. aureus [10]; at 3 weeks, 4X per Day, 5 Days): 16% at 3 weeks
- Recolonization (S. aureus [10]; at 4 weeks, 2X per day, 5 days): 43% at 4 weeks and 22% at 4 weeks and 26% at 4 weeks

Molecule: Nc1ccc(S(=O)(=O)Nc2nccs2)cc1 [sulphathiazole]
- nasal colonies [11]: great reduction in nasal colonies

Molecule: penicillin
- nasal colonies [11]: great reduction in nasal colonies
- use in treatment of impetigo and furunculosis [12]: successful
- healing of patients (sycosis barbae): all but one patient healed to satisfaction
- skin carriage (S. aureus [13]; from 57% before): 38%
- nasal S. aureus carriage (S. aureus [13]; from 97% before): 37%

Molecule: [Cl][Al]([Cl])[Cl] [aluminum chloride]
- treatment outcome [14]: successful treatment outcome for all

Molecule: Cc1onc(-c2ccccc2)c1C(=O)N[C@@H]1C(=O)N2[C@@H]1SC(C)(C)[C@@H]2C(=O)O [oxacillin]
- aerial colonies of S. aureus (S. aureus [15]): decreased the aerial colonies of S. aureus
- nasal colonization (S. aureus [15]): decreased nasal colonization
